Data as given in US20130065885A1, “ORAL THERAPEUTIC COMPOUND DELIVERY SYSTEM” (IMAGINOT PTY LTD., priority 2004, published 2013).
Counter-ions that a name gives are not always drawn. Like-named read-outs stand apart in the source and are kept apart here.

Assays:
[1] = cited from earlier work
physchem = conditions: water

## CC(=O)Nc1ccc(O)cc1 [paracetamol]
Weight for weight basis, dose in the paracetamol/tramadol hydrochloride tablet
  volume needed for total dissolution of the dose: around 27 mL

## COc1cccc(C2(O)CCCCC2CN(C)C)c1 (stereo not drawn) [tramadol hydrochloride]
[1]
  solubility in water: around 30 mg/mL
other
  Volume of water to dissolve dose: 1.3 mL
  volume needed for total dissolution of the dose: around 1 mL
physchem
  solubility: 30 mg/mL

## CN1CCC[C@@H]1Cc1c[nH]c2ccc(CCS(=O)(=O)c3ccccc3)cc12 [Eletriptan hydrobromide]
Dose as in the Dose (mg) column
  Volume of water to dissolve dose: 4 mL
